Assays:
Settings in all cases: 72 h
U2OS [1] = assay: drug sensitivity score (DSS) for viability; higher = more toxic; extreme values may be limits of the assay
HepG2 [2] = assay: as above
Caco-2 [3] = assay: as above
Vero E6 [4] = assay: as above
Calu-3 [5] = assay: as above
U2OS [6] = assay: cell viability relative to DMSO; higher = less toxic
HepG2 [7] = assay: as above
Caco-2 [8] = assay: as above
Vero E6 [9] = assay: as above
Calu-3 [10] = assay: as above
U2OS [11] = assay: relative viability EC50 (midpoint between 100% and the lowest measured viability); higher = less toxic
HepG2 [12] = assay: as above
Caco-2 [13] = assay: as above
Vero E6 [14] = assay: as above
Calu-3 [15] = assay: as above

Structure (SMILES) | drug sensitivity score (U2OS [1]) | drug sensitivity score (HepG2 [2]) | drug sensitivity score (Caco-2 [3]) | drug sensitivity score (Vero E6 [4]) | drug sensitivity score (Calu-3 [5]) | cell viability (U2OS [6]; 1 nM) [%] | cell viability (U2OS [6]; 10 nM) [%] | cell viability (U2OS [6]; 100 nM) [%] | cell viability (U2OS [6]; 1000 nM) [%] | cell viability (U2OS [6]; 10000 nM) [%] | cell viability (HepG2 [7]; 1 nM) [%] | cell viability (HepG2 [7]; 10 nM) [%] | cell viability (HepG2 [7]; 100 nM) [%] | cell viability (HepG2 [7]; 1000 nM) [%] | cell viability (HepG2 [7]; 10000 nM) [%] | cell viability (Caco-2 [8]; 1 nM) [%] | cell viability (Caco-2 [8]; 10 nM) [%] | cell viability (Caco-2 [8]; 100 nM) [%] | cell viability (Caco-2 [8]; 1000 nM) [%] | cell viability (Caco-2 [8]; 10000 nM) [%] | cell viability (Vero E6 [9]; 1 nM) [%] | cell viability (Vero E6 [9]; 10 nM) [%] | cell viability (Vero E6 [9]; 100 nM) [%] | cell viability (Vero E6 [9]; 1000 nM) [%] | cell viability (Vero E6 [9]; 10000 nM) [%] | cell viability (Calu-3 [10]; 1 nM) [%] | cell viability (Calu-3 [10]; 10 nM) [%] | cell viability (Calu-3 [10]; 100 nM) [%] | cell viability (Calu-3 [10]; 1000 nM) [%] | cell viability (Calu-3 [10]; 10000 nM) [%] | relative viability EC50 (U2OS [11]) [µM] | relative viability EC50 (HepG2 [12]) [µM] | relative viability EC50 (Caco-2 [13]) [µM] | relative viability EC50 (Vero E6 [14]) [µM] | relative viability EC50 (Calu-3 [15]) [µM]
O=c1cc(N2CCOCC2)oc2c1ccc1ccccc12 [NU-7026] | 0 | 0.4 | 0.5 | 0.1 | 0.7 | 98.9 | 101 | 96.2 | 99.6 | 95.7 | 106 | 93.4 | 92.9 | 90.8 | 88 | 94.3 | 113 | 91 | 99.2 | 82.7 | 99 | 103 | 98.3 | 101 | 86.2 | 98.4 | 107 | 102 | 97.6 | 82.8 | > 10 | > 10 | > 10 | > 10 | > 10
O=C(Nc1ccc2[nH]ccc2c1)c1ccccc1 [OAC2] | 0 | 0 | 0 | 0 | 0 | 103 | 97.2 | 97.1 | 104 | 95.3 | 104 | 106 | 97.3 | 99.7 | 101 | 91.9 | 91.3 | 95.1 | 98.7 | 94.5 | 92.3 | 95.7 | 99.6 | 92.8 | 95.5 | 102 | 99 | 104 | 99.3 | 96.6 | > 10 | > 10 | > 10 | > 10 | > 10
CC(C)Oc1ccc(-c2nc(-c3cccc4c3CC[C@H]4NCCC(=O)O)no2)cc1C#N [RP-001] | 0 | 0 | 0 | 0 | 0 | 102 | 95.1 | 103 | 106 | 112 | 96.9 | 97.6 | 94.2 | 104 | 110 | 95 | 94.7 | 94.1 | 95.7 | 98.2 | 95 | 97.7 | 90.2 | 101 | 104 | 95.9 | 99.8 | 87.5 | 101 | 102 | > 10 | > 10 | > 10 | > 10 | > 10

— the supplement of paper PMC13380429
